Patent US9969687B2, “Compounds useful as CCR9 modulators” (Norgine B.V., priority 2013, dated 2018)

Experiments:
CCR9 [1] = target: T1, CCR9 (Homo sapiens (Human), UniProt P51686); experiment: FLIPR calcium flux assay using hCCR9 over expressed cells (Chem1-hCCR9), TECK stimulation; assay type: cell-based; details: Chem1-hCCR9 overexpressing cells
Protocol: Biological Activity: FLIPR Assay Using hCCR9 Over Expressed Cells
A calcium flux assay was used to determine the ability of the compounds to interfere with the binding between CCR9 and its chemokine ligand (TECK) in Chem1-hCCR9 overexpressing cells. hCCR9 overexpressing cells were seeded (25,000 cells/well) into black Poly-D-Lysine coated clear bottom 96-well plates (BD Biosciences, Cat #356640) and incubated overnight at 37° C./5% CO2 in a humidified incubator. Media was aspirated and cells washed twice with 100 μL assay buffer (1×HBSS, 20 mM HEPES) containing 2.5 mM Probenecid. A 0.3× Fluo-4 NW calcium dye was prepared in assay buffer containing 5 mM Probenecid and stored in the dark. Each well was loaded with 100 μL of 0.3× Fluo-4 NW calcium dye and incubated at 37° C./5% CO2 for 60 minutes and then at room temperature for 30 minutes. A half-log serially diluted concentration response curve was prepared at a 3× final assay concentration for each compound (10 μM-0.1 nM final assay concentration) and 50 μL of the compound then transferred to the cells (150 μL final volume) for 60 minutes prior to stimulation (30 minutes at 37° C./5% CO2 and 30 minutes at room temperature). TECK was diluted to 4× its EC80 in assay buffer (containing 0.1% [w/v] bovine serum albumin [BSA]) and 50 μL dispensed through the fluorometric imaging plate reader (FLIPR) instrument to stimulate the cells (200 μL final volume). The increase in intracellular calcium levels was measured with the FLIPR instrument. The potency of the compound as a CCR9 antagonist was calculated as an IC50 using GraphPad Prism software (variable slope four parameter). The Ki of the compound was determined from the IC50 values using the following equation. IC50/1+(Agonist (TECK) conc. used in assay/EC50 of agonist (TECK) generated on day of experiment) Ki calculation: […]

CCR9 [2] = target: T1, CCR9; experiment: FLIPR calcium flux assay using MOLT4 cells, TECK stimulation; assay type: cell-based; details: MOLT4 cells (human T-cell line)
How it was run: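 MOLT4 cells in HBSS/20 mM HEPES with probenecid, Fluo-4 NW loaded, preincubated with compound (10 μM-0.1 nM final, half-log) for 60 min before TECK stimulation. Calcium rise read on FLIPR; IC50 from four-parameter fit, converted to Ki using TECK concentration and same-day TECK EC50.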

T1 sequence (P51686 whole entry): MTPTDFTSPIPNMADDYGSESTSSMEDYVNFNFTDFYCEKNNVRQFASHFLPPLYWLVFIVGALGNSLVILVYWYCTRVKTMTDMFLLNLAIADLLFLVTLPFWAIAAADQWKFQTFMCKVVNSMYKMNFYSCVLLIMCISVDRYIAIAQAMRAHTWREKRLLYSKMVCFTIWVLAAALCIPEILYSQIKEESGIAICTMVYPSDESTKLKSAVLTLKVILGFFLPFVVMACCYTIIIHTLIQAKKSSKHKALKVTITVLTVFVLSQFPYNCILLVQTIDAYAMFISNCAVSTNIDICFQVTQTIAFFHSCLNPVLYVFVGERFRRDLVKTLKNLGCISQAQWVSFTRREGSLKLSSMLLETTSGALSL

SMILES	Ki (CCR9 [1])	Ki (CCR9 [2])
Cc1ccc(N2C(=O)c3c(Cl)ccc(NS(=O)(=O)c4ccc(C(C)(C)C)cc4)c3C2=O)[n+]([O-])c1 [Compound 229]	63 nM	46 nM
COc1cc(CN2C(=O)c3c(Cl)ccc(NS(=O)(=O)c4ccc(C(C)(C)C)cc4)c3C2=O)c[n+]([O-])c1 [Compound 231]	89 nM	50 nM
Cn1nnc(N2C(=O)c3c(Cl)ccc(NS(=O)(=O)c4ccc(C(C)(C)C)cc4)c3C2=O)n1 [Compound 234]	43 nM	45 nM
COc1ccc(CN2C(=O)c3c(Cl)ccc(NS(=O)(=O)c4ccc(C(C)(C)C)cc4)c3C2=O)cn1 [Compound 235]	94 nM	123 nM
Cc1ccc(N2C(=O)c3c(Cl)ccc(NS(=O)(=O)c4ccc(C(C)(C)C)cc4)c3C2=O)nn1 [Compound 236]	32 nM	51 nM
COc1cncc(N2C(=O)c3c(Cl)ccc(NS(=O)(=O)c4ccc(C(C)(C)C)cc4)c3C2=O)c1C [Compound 242]	56 nM	18 nM
COc1ccc(N2C(=O)c3c(Cl)ccc(NS(=O)(=O)c4ccc(C(C)(C)C)cc4)c3C2=O)c(C)[n+]1[O-] [Compound 243]	115 nM	34 nM
COc1c[n+]([O-])cc(N2C(=O)c3c(Cl)ccc(NS(=O)(=O)c4ccc(C(C)(C)C)cc4)c3C2=O)c1C [Compound 245]	54 nM	47 nM
COc1ncccc1CN1C(=O)c2c(Cl)ccc(NS(=O)(=O)c3ccc(C(C)(C)C)cc3)c2C1=O [Compound 247]	51 nM	78 nM
CC(C)(C)c1ccc(S(=O)(=O)Nc2ccc(Cl)c3c2C(=O)N(c2ccncn2)C3=O)cc1 [Compound 249]	60 nM	33 nM
CC(C)(C)c1ccc(S(=O)(=O)Nc2ccc(Cl)c3c2C(=O)N(c2ncccn2)C3=O)cc1 [Compound 250]	56 nM	23 nM
Cc1ccc(CN2C(=O)c3c(Cl)ccc(NS(=O)(=O)c4ccc(C(C)(C)C)cc4)c3C2=O)nc1 [Compound 251]	148 nM	51 nM
Cc1cccc(CN2C(=O)c3c(Cl)ccc(NS(=O)(=O)c4ccc(C(C)(C)C)cc4)c3C2=O)n1 [Compound 254]	68 nM	58 nM
Cn1cnc(N2C(=O)c3c(Cl)ccc(NS(=O)(=O)c4ccc(C(C)(C)C)cc4)c3C2=O)n1 [Compound 255]	72 nM	17 nM
Cc1cncc(CN2C(=O)c3c(Cl)ccc(NS(=O)(=O)c4ccc(C(C)(C)C)cc4)c3C2=O)c1 [Compound 258]	67 nM	23 nM
Cc1ccc(CN2C(=O)c3c(Cl)ccc(NS(=O)(=O)c4ccc(C(C)(C)C)cc4)c3C2=O)[n+]([O-])c1 [Compound 259]	45 nM	13 nM
Cc1cc(CN2C(=O)c3c(Cl)ccc(NS(=O)(=O)c4ccc(C(C)(C)C)cc4)c3C2=O)c[n+]([O-])c1 [Compound 262]	119 nM	46 nM
CCc1c(OC)c[n+]([O-])cc1N1C(=O)c2c(Cl)ccc(NS(=O)(=O)c3ccc(C(C)(C)C)cc3)c2C1=O [Compound 266]	25 nM	10 nM
Cc1cc(N2C(=O)c3c(Cl)ccc(NS(=O)(=O)c4ccc(C(C)(C)C)cc4)c3C2=O)c(C)[n+]([O-])c1 [Compound 267]	59 nM	27 nM
Cc1nccnc1N1C(=O)c2c(Cl)ccc(NS(=O)(=O)c3ccc(C(C)(C)C)cc3)c2C1=O [Compound 270]	61 nM	23 nM
CCOc1ccncc1N1C(=O)c2c(Cl)ccc(NS(=O)(=O)c3ccc(C(C)(C)C)cc3)c2C1=O [Compound 271]	35 nM	9 nM
Cc1c[n+]([O-])ccc1N1C(=O)c2c(Cl)ccc(NS(=O)(=O)c3ccc(C(C)(C)C)cc3)c2C1=O [Compound 272]	29 nM	9 nM
CC(C)(C)c1ccc(S(=O)(=O)Nc2ccc(Cl)c3c2C(=O)N(c2cccc[n+]2[O-])C3=O)cc1 [Compound 274]	50 nM	34 nM
Cc1cnc(N2C(=O)c3c(Cl)ccc(NS(=O)(=O)c4ccc(C(C)(C)C)cc4)c3C2=O)cn1 [Compound 275]	54 nM	32 nM
CC(C)(C)c1ccc(S(=O)(=O)Nc2ccc(Cl)c3c2C(=O)N(c2cc(F)ccn2)C3=O)cc1 [Compound 276]	91 nM	22 nM
Cc1cc(N2C(=O)c3c(Cl)ccc(NS(=O)(=O)c4ccc(C(C)(C)C)cc4)c3C2=O)cn(C)c1=O [Compound 285]	78 nM	16 nM

Continued by falling Ki (CCR9 [1]), values first:

Ki (CCR9 [1])	Ki (CCR9 [2])	SMILES
25 nM	11 nM	Cc1cnc(C)c(N2C(=O)c3c(Cl)ccc(NS(=O)(=O)c4ccc(C(C)(C)C)cc4)c3C2=O)c1 [Compound 263]
23 nM	13 nM	CC(C)(C)c1ccc(S(=O)(=O)Nc2ccc(Cl)c3c2C(=O)N(Cc2ncccc2F)C3=O)cc1 [Compound 239]
23 nM	9 nM	Cn1cc(N2C(=O)c3c(Cl)ccc(NS(=O)(=O)c4ccc(C(C)(C)C)cc4)c3C2=O)ccc1=O [Compound 282]
22 nM	16 nM	COc1ccc(N2C(=O)c3c(Cl)ccc(NS(=O)(=O)c4ccc(C(C)(C)C)cc4)c3C2=O)nc1C [Compound 260]
21 nM	19 nM	Cc1cccc(N2C(=O)c3c(Cl)ccc(NS(=O)(=O)c4ccc(C(C)(C)C)cc4)c3C2=O)[n+]1[O-] [Compound 233]
21 nM	25 nM	CCc1c(OC)cncc1N1C(=O)c2c(Cl)ccc(NS(=O)(=O)c3ccc(C(C)(C)C)cc3)c2C1=O [Compound 257]
20 nM	15 nM	Cc1cc(C)c(CN2C(=O)c3c(Cl)ccc(NS(=O)(=O)c4ccc(C(C)(C)C)cc4)c3C2=O)c(=O)[nH]1 [Compound 283]
18 nM	18 nM	Cc1cnc(C#N)c(N2C(=O)c3c(Cl)ccc(NS(=O)(=O)c4ccc(C(C)(C)C)cc4)c3C2=O)c1 [Compound 256]
18 nM	11 nM	CC(C)(C)c1ccc(S(=O)(=O)Nc2ccc(Cl)c3c2C(=O)N(c2ccncc2)C3=O)cc1 [Compound 264]
17 nM	10 nM	COc1cncc(N2C(=O)c3c(C#N)ccc(NS(=O)(=O)c4ccc(C(C)(C)C)cc4)c3C2=O)c1 [Compound 278]
17 nM	18 nM	CC(C)(C)c1ccc(S(=O)(=O)Nc2ccc(C#N)c3c2C(=O)N(Cc2ccccn2)C3=O)cc1 [Compound 279]
14 nM	10 nM	CCOC(=O)c1ncccc1N1C(=O)c2c(Cl)ccc(NS(=O)(=O)c3ccc(C(C)(C)C)cc3)c2C1=O [Compound 286, ethyl 3-(4-((4-(tert-butyl)phenyl)sulfonamido)-7-chloro-1,3-dioxoisoindolin-2-yl)picolinate]
13 nM	14 nM	COc1ccc(N2C(=O)c3c(Cl)ccc(NS(=O)(=O)c4ccc(C(C)(C)C)cc4)c3C2=O)c(C)n1 [Compound 238]
12 nM	7 nM	CC(C)(C)c1ccc(S(=O)(=O)Nc2ccc(Cl)c3c2C(=O)N(Cc2ccc[nH]c2=O)C3=O)cc1 [Compound 284]
11 nM	16 nM	COc1ncc(C)cc1N1C(=O)c2c(Cl)ccc(NS(=O)(=O)c3ccc(C(C)(C)C)cc3)c2C1=O [Compound 261]
10 nM	22 nM	CC(C)(C)c1ccc(S(=O)(=O)Nc2ccc(Cl)c3c2C(=O)N(c2cccnc2C(=O)O)C3=O)cc1 [Compound 287, 3-(4-((4-(tert-butyl)phenyl)sulfonamido)-7-chloro-1,3-dioxoisoindolin-2-yl)picolinic acid]
9 nM	28 nM	COc1nccc(C)c1N1C(=O)c2c(Cl)ccc(NS(=O)(=O)c3ccc(C(C)(C)C)cc3)c2C1=O [Compound 237]
7 nM	5 nM	CC(C)(C)c1ccc(S(=O)(=O)Nc2ccc(Cl)c3c2C(=O)N(Cc2c(F)ccc[n+]2[O-])C3=O)cc1 [Compound 241]
6 nM	8 nM	COc1ccc(N2C(=O)c3c(Cl)ccc(NS(=O)(=O)c4ccc(C(C)(C)C)cc4)c3C2=O)c(OC)n1 [Compound 230]
4 nM	5 nM	CC(C)(C)c1ccc(S(=O)(=O)Nc2ccc(Cl)c3c2C(=O)N(c2ccc[nH]c2=O)C3=O)cc1 [Compound 281, 4-(tert-butyl)-N-(7-chloro-1,3-dioxo-2-(2-oxo-1,2-dihydropyridin-3-yl)isoindolin-4-yl)benzenesulfonamide]
3 nM	7 nM	CC(C)(C)c1ccc(S(=O)(=O)Nc2ccc(Cl)c3c2C(=O)N(c2ccsc2C#N)C3=O)cc1 [Compound 232]
3 nM	6 nM	Cc1cnccc1N1C(=O)c2c(Cl)ccc(NS(=O)(=O)c3ccc(C(C)(C)C)cc3)c2C1=O [Compound 244]
